The source of these data is patent US9539298B2, “Lissencephaly therapeutic agent” (OSAKA CITY UNIVERSITY, priority 2010, dated 2017).

The subject of series [1] is nerve cells from cerebellums of FVB mice. Briefly: Analysis of toxicity of calpain inhibitors on cultured cerebellar nerve cells. In kind it is cell-based, mouse. Here is the method:
The cerebellums were removed from 4- to 5-day-old FVB mice (15 mice). In a Ca^2+-free Hank's Balanced Salt Solution (CF-HBSS; Ca^2+, Mg^2+-free Hank's Balanced Salt Solution (CMF-HBBS, Sigma) containing 5 mM magnesium chloride (MgCl2, Wako) and 4 mg/mL glucose (Wako)), the meninges were removed and cut into pieces. After the cerebellum fragments were washed with CF-HBSS, the fragments were allowed to stand for 20 minutes at 37° C. in CF-HBSS containing 0.025% trypsin (Invitrogen) and 6.25 μg/mL deoxyribonuclease (DNase, Sigma), and then centrifuged. The resulting tissues were washed with 10% HS/BME (DNase Medium; obtained by adding 5 mM MgCl2 and 25 μg/mL DNase to Basal Medium Eagle (BME, Invitrogen) containing 10% Horse Serum (HS, Invitrogen)) and centrifuged. DNase medium was added to the cells, and the cells were transferred to a 24-well plate (Nunc). The cells were kept still for 30 minutes at 37′C under an atmospheric environment of 5% CO2, thereby suspending the cells. The cell suspension was isolated, and then washed with 10% HS/BME. The suspension was transferred again to a 24-well plate to be cultured for 16 hours at 37° C. under an atmospheric environment of 5% CO2. The cells were collected to BME containing 1% Bovine Serum Albumin (BSA, Sigma) and 0.5% N2 supplement (Invitrogen), and the cell suspension was seeded on a 35 mm glass base dish (Iwaki) coated beforehand with poly-L-lysine (Sigma) and laminin (Sigma) in an amount of […]. The cells were cultured for 8 hours at 37° C. under an atmospheric environment of 5% CO2. The cultured nerve cells were used as test nerve cells.
A culture solution (10% HS/BME) containing SNJ-1945, E64d, or ALLN was prepared in the following manner. SNJ-1945 dissolved in dimethyl sulfoxide (Sigma, D-5879) was mixed with a culture solution so that the final concentration became 200 μM, and was kept still for an hour at 37° C., thereby completely dissolving SNJ-1945 in the culture medium. ALLN and E64d were also dissolved in culture media in the same manner, except that ALLN and E64d were added to the culture media to final concentrations of 50 μM and 100 μM, respectively. The culture media in which the components were dissolved were added to the test nerve cells prepared above in an amount of 2 ml/well, and the cells were cultured for 16 hours. As a control, the same culture was conducted using a culture medium containing the same amount of dimethyl sulfoxide (Sigma, D-5879). After culture, the cells were observed using an inverted microscope (TCS FP5S, Leica). A 20× objective lens was used. Images were taken using dedicated software (LAS AF, Leica) under the condition of 512×512 pixels.

In series [2] the test system is fibroblasts derived from human lissencephaly patient (Lis1 +/−). Nature of the series: Fluorescence immunostaining of fibroblasts derived from a human lissencephaly patient. As to conditions: 200 μM, two hours. It counts as cell-based. How it is done:
The establishment of fibroblasts was performed in the following manner. Under a germ-free condition, a portion of epidermis (5 mm square) was obtained from a lissencephaly patient. The obtained epidermis was transported for 4 hours at room temperature while stored in a culture solution (E-MEM (Wako Pure Chemical Industries, Ltd., 051-07615), 10% fetal bovine blood serum (Equitech-Bio Inc, SFBM30-1798, 1×L-glutamine (Gibco, 25030), 1× Pen-Strep (Gibco, 15140)) (*the culture solution with this formulation is used hereinafter). After transportation, the tissue fragment was cut into a 1 mm square, fixed to a culture flask (Becton Dickinson 353009), and cultured for three weeks in 6 ml of a culture solution. After the 3-week culture, the amplification of fibroblasts from the tissue fragment was confirmed; then, the fragment was washed with a phosphate buffer physiological saline solution (phosphate buffered saline, PBS (−), 137 mM NaCl, 2.7 mM KCl, 10 mM Na2HPO4, 1.8 mM KH2PO4, pH 7.4), and 0.5 ml of trypsin-EDTA (Gibco, 25200) was added, followed by reaction for 5 minutes at 37° C. to separate the cells. Then, 10 ml of a culture solution was added, and the fragment was transferred to a 10 cm petri dish (Greiner, 664-160) for culture.
To observe the cells with a microscope, the cells were cultured on cover glasses. The cover glasses (24×24 No. 1, Matsunami Glass Ind., Ltd.) were immersed in 0.1 M hydrochloric acid for 20 minutes. After washing with water, the cover glasses were placed in 70% ethanol, and kept in a clean bench. In the clean bench, each cover glass was placed on the bottom of each well of a 6-well plate (Falcon 353046). After the ethanol was dried, 0.5×10^5 fibroblasts per well were added and cultured for 16 hours, thereby adhering the cells onto the cover glasses.
A SNJ-1945-containing culture solution was prepared. […]

Take `COCCOCCOC(=O)N[C@@H](CC(C)C)C(=O)N[C@@H](Cc1ccccc1)C(=O)C(=O)NC1CC1` [compound 17, ((1S)-1-((((1S)-1-Benzyl-2,3-dioxo-3-(cyclopropylamino)propyl)amino)carbonyl)-3-methylbutyl)carbamic acid 5-methoxy-3-oxapentyl ester]: the “neurite elongation and cell migration (cytotoxicity)” value in series [1] (200 μM, 16 hours, FIG. 24) is “normal neurite elongation and cell migration were also observed, and no significant difference from the control was observed”. The cell toxicity entry in series [1] (compared with other calpain inhibitors) is “did not show any cell toxicity even in a high concentration”. The “intracellular distribution of LIS1” value in series [2] (FIGS. 15 and 16) is “causes LIS1 to be accumulated around the nucleus or centrosome again”. Also, in series [2] (FIGS. 17 and 18), the “intracellular distribution of cytoplasmatic dynein” value is recorded as “cytoplasmatic dynein became completely diffused again from the region around the nucleus to the cell marginal zone”. Moreover, in series [2] (FIGS. 19 and 20), the “intracellular distribution of β-COP-coated vesicles” value is “β-COP-coated vesicles became distributed evenly from the region around the nucleus to the cell marginal zone again”.
